According to patent US5264355A, “Methlating enzyme from streptomyces MA6858” (Merck & Co., Inc., priority 1992, dated 1993):
Values belong to the molecule of their own block, whether it stands above or below them.

Tests used:
[1] = target: T1, 31-O-desmethylFK-506 O-methyltransferase (FKMT) (Streptomyces tacrolimicus, UniProt P74838); assay: FKMT O-methyltransferase assay / kinetic analysis; type: biochemical, Streptomyces sp. MA6858; conditions: substrate A as variable, above 50 uM; fixed SAM 220 μM
T1 construct: endogenous in cells; host or cells: Native enzyme purified in house from mycelium of Streptomyces MA6858 (ATCC 55098), not recombinant; for the kinetics, purified through the second MonoQ column
T1 sequence (P74838 1-260): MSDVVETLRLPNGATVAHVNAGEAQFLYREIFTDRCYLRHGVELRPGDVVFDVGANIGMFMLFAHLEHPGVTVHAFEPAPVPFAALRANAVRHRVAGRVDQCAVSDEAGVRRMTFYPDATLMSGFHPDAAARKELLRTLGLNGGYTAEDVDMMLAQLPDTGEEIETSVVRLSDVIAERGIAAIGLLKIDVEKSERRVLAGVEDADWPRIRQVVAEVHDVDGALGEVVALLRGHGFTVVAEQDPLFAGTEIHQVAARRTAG
Experimental: (§1) This enzyme, is SAM dependent and has requirement for Mg^+2 with optimum concentration of 4 mM. […] The temperature effect on the methylation reaction was examined at 0°, 22°, 24°, 34°, 37°, and 44° C. The optimum temperature for the reaction was determined to be at 34° C. Above this temperature there was a problem with substrate decomposition. Under the established incubation condition in which 31 uM of substrate A and 220 uM of SAM were used, the rate of the methylation reaction was linear up to 35 min with protein concentration up to 100 ug.
(§2) For the kinetic studies, a preparation of the FKMT enzyme which had been purified through the second MonoQ column chromatography was used. Under conditions for the initial velocity measurement, apparent Km and Vmax were determined for 31-O-desmethyFK-506 (substrate A) at one saturating concentration of SAM ([…]). […]
(§3) The assay was carried out in 1 ml. mixture containing 0.025 mM 31-desmethylFK-506, 4 mM MgSO4 and different quantities of the enzyme source in 50 mM phosphate buffer, pH 7.5. […] The plastic sheet was developed in chloroform:methanol (9:1) and area showing standard FK-506 under UV-light was cut and the radioactivity in the cut-strip was measured and the amount of the product formed was calculated.

[2] = tested on: in vitro immune systems; conditions: J. Antibiotics 1987, 40, 1256; cited from earlier work
[3] = substrate: C=CC[C@@H]1/C=C(\C)C[C@H](C)C[C@H](OC)[C@H]2O[C@@](O)(C(=O)C(=O)N3CCCC[C@H]3C(=O)O[C@H](/C(C)=C/[C@@H]3CC[C@@H](O)[C@H](O)C3)[C@H](C)[C@@H](O)CC1=O)[C@H](C)C[C@@H]2OC; assay: FKMT O-methyltransferase assay / kinetic analysis; type: biochemical, Streptomyces sp. MA6858; conditions: other: FKMT purified through second MonoQ column, initial velocity, pH 7.5
Experimental: as §1, §2, §3

substrate inhibition [1]: no substrate inhibition
Molecule: C=CC[C@@H]1/C=C(\C)C[C@H](C)C[C@H](OC)[C@H]2O[C@@](O)(C(=O)C(=O)N3CCCC[C@H]3C(=O)O[C@H](/C(C)=C/[C@@H]3CC[C@@H](O)[C@H](O)C3)[C@H](C)[C@@H](O)CC1=O)[C@H](C)C[C@@H]2OC [31-O-desmethyFK-506]

Molecule: C=CC[C@@H]1/C=C(\C)C[C@H](C)C[C@H](OC)[C@H]2O[C@@](O)(C(=O)C(=O)N3CCCC[C@H]3C(=O)O[C@H](/C(C)=C/[C@@H]3CC[C@@H](O)[C@H](OC)C3)[C@H](C)[C@@H](O)CC1=O)[C@H](C)C[C@@H]2OC [FR-900506, 17-allyl-1,14-dihydroxy-12-[2'-(4"-hydroxy-3"-methoxycyclohexyl)-1'-methylvinyl]-23,25-dimethoxy-13,19,21,27-tetramethyl-11,28-dioxa-4-azatricyclo-[22.3.1.0^4,9]-octacos-18-ene-2,3,10,16-tetraone]
effectiveness relative to cyclosporin in the suppression of in vitro immune systems [2]: 100 times

B1: 31-O-desmethylFK-506 O-methyltransferase (FKMT) (Streptomyces tacrolimicus) (protein)
chain: MSDVVETLRLPNGATVAHVNAGEAQFLYREIFTDRCYLRHGVELRPGDVVFDVGANIGMFMLFAHLEHPGVTVHAFEPAPVPFAALRANAVRHRVAGRVDQCAVSDEAGVRRMTFYPDATLMSGFHPDAAARKELLRTLGLNGGYTAEDVDMMLAQLPDTGEEIETSVVRLSDVIAERGIAAIGLLKIDVEKSERRVLAGVEDADWPRIRQVVAEVHDVDGALGEVVALLRGHGFTVVAEQDPLFAGTEIHQVAARRTAG
notes: Washed mycelium was used for the preparation of the cell-free extract; endogenous in cells; host or cells: Native enzyme purified in house from mycelium of Streptomyces MA6858 (ATCC 55098), not recombinant; for the kinetics, purified through the second MonoQ column
Km ([3]; saturating SAM (220 uM)): 23.21 µM
Vmax ([3]; saturating SAM (220 mM as printed)): 2.33 nmol/mg/min
